These results are taken from patent US20230381144A1, “COMPOSITIONS AND METHODS FOR TREATMENT OF PAIN” (SYNVENTA LLC, priority 2019, published 2023).

Data set [1] is described as follows: Radio-telemetry recording of core body temperature in conscious rats. Type of data set: in vivo, Sprague-Dawley rat. The method, then:
A laparotomy is performed.
One week later, drugs tests are conducted.
FIGS. 2-4 all show an increase in core body temperature approaching and at the zero time point. Those skilled in the art would readily appreciate that this increase is an artifact in the study associated with the required handling of the animals to effectuate the dosing.

For data set [2] the following is noted: 0.003 mg/kg and 0.01 mg/kg, i.p.; male and female rats.
Experimental: Adult male and female Sprague-Dawley are implanted with radio-telemetry transmitters for monitoring blood pressure and core body temperature. Radio-telemetry transmitter (DSI HD-S10) implantation is performed under sterile condition. Long-acting buprenorphine (1 mg/kg/day, SC) is administered prior to anesthesia for postoperative pain relief. Rats are anesthetized with 5% isoflurane and kept on 2% isoflurane to maintain a stable level of anesthesia. Body temperature is maintained during surgery using a heating pad. A laparotomy is performed. The catheter tip of the telemetry transmitter is secured with a 4-0 silk suture in the abdominal cavity. The body of the telemetry transmitter is placed in the abdominal cavity and secured to the abdominal wall. Approximately 100 μL of 0.25% marcaine is applied directly to the muscle incision, and the skin is then closed with a 5-0 Vicryl absorbable suture placed subcuticularly. After recovery from anesthesia, rats are returned to their home cages placed on DSI receivers.
After one week of recovery, rats are habituated to the drug administration procedure over three separate sessions. One week later, drugs tests are conducted. […]
For data set [3] the following is noted: cited from earlier work.

The structures appear in SMILES notation.

On to `Cc1cccc([C@H](C)c2cnc[nH]2)c1C` [dexmedetomidine], for which the “effect on ABT-102-induced hyperthermia at the lowest tested dose” value in data set [1] (dexmedetomidine 0.003 mg/kg in combination with ABT-102, FIG. 4) was “able to neutralize ABT-102-induced hyperthermia”. For the same molecule, the “effect on core body temperature” value in data set [1] (dexmedetomidine alone, 0.003 mg/kg, FIG. 3) is “no effect”. Besides, the “effect on ABT-102-induced increase in core body temperature” value in data set [1] (dexmedetomidine in combination with ABT-102 5 mg/kg, p.o., FIG. 4, p<0.0001) is recorded as “prevented hyperthermic effects”. Further, the “effect of dexmedetomidine on its own (FIG. 5, mean arterial blood pressure)” value in data set [2] is on record as “free from causing hypothermic effects”.

As for `CC(=O)Nc1nc2c(Oc3cc(-c4ccc(C(F)(F)F)cc4)ncn3)cccc2s1` [AMG 517, N-(4-((6-(4-(trifluoromethyl)phenyl)pyrimidin-4-yl)oxy)benzo[d]thiazol-2-yl)acetamide], in data set [3] (Phase 1b study, reason the study was halted), the temperature elevations result was “unexpectedly high temperature elevations”. Further, the analgesic effect result in data set [3] (review of the data for the 17 subjects enrolled) was “no clear analgesic effect”.

Regarding `CC(C)(C)c1ccc2c(c1)CC[C@H]2NC(=O)Nc1cccc2[nH]ncc12` [ABT-102, 1-[(1R)-5-tert-butyl-2,3-dihydro-1H-inden-1-yl]-3-(1H-indazol-4-yl)urea], the “increase in body temperature above vehicle” value in data set [1] (conscious, telemetry-instrumented rat, ABT-102 3 and 10 mg/kg, p.o., FIG. 2) was “up to 1.0 °C”.
